# Reference: patent US20230270797A1, “NOVEL STRAIN OF THE SPECIES LACTICASEIBADLLUS RHAMNOSUS, COMPOSITIONS THEREOF AND USE THEREOF IN THE TREATMENT OF GENITOURINARY INFECTIONS” (URIACH ITALY S.R.L., priority 2020, published 2023)
# Test: Antioxidant activity, linoleic acid peroxidation (ferric thiocyanate)
# Type: biochemical
# Details: cell free supernatant; linoleic acid 50 mM; negative control (MRS broth) Abs500 nm = 2
# Experimental: Oxidation was measured by determining ferric thiocyanate. Butylated hydroxytoluene (BHT) and α-tocopherol (1 mg/mL) were used as positive controls. MRS broth was used as negative control. […] The analysis was carried out in triplicate.
structure (smiles),measurement,value
"Cc1c(C)c2c(c(C)c1O)CC[C@@](C)(CCC[C@H](C)CCC[C@H](C)CCCC(C)C)O2 [positive control, α-tocopherol]","Antioxidant activity, absorbance values at 500nm",positive control: Abs500 nm = 0.25)
